For this assay, the target named is T1, PfHT (Plasmodium falciparum, UniProt Q7KWJ5).
T1 sequence (Q7KWJ5 1-504): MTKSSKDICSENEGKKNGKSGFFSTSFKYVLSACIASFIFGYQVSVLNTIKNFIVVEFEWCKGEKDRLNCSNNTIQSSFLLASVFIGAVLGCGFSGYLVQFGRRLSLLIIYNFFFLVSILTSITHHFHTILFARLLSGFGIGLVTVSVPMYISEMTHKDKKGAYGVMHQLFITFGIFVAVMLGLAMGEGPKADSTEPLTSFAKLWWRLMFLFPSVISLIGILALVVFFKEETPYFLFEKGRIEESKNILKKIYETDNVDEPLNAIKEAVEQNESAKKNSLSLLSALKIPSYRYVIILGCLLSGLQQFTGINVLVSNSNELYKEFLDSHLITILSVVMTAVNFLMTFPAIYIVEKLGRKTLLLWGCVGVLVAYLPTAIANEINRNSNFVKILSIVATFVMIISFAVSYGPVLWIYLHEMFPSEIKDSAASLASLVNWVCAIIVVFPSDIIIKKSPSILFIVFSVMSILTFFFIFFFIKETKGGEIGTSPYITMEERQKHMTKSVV
In words: 2-DG uptake by HEK293 cells overexpressing PfHT. Type of assay: cell-based. Details: expressed in transfected cells; host or cells: HEK293 (HEK293-FLIP, native hGLUT1 knocked down by shRNA). The text has this:
Generation of HEK293 cells overexpressing PfHT and human GLUTs 1–4 were described elsewhere. Briefly, HEK293 cells were transfected with pcDNA3.1 FLII12Pglu-7006 (Addgene), containing the fluorescence resonance energy transfer (FRET) glucose sensor (HEK293-FLIP) and PfHT, human GLUT1 (hGLUT1), hGLUT2, hGLUT3, hGLUT4, hGLUT5 or hGLUT8 using Optifect (Life Technologies) according to manufacturer’s specifications. To increase retention of GLUT8 at the plasma membrane, the dileucine sorting signal E^7E^8XXXLL was modified to R^7R^8XXXLL as described in [17]. Stable transfectants were selected for G418 and hygromycin resistance to select for FRET sensor and hexose transporter, respectively. HEK293-FLIP cells were also used to generate cells stably transfected with FLAG-tagged PfHT (FTPfHT). FLAG tag ([…]) followed by a triple glycine linker and a tobacco etch virus (TEV) protease site (ENLYFQS) followed by a triple glycine linker was added to the N-terminus of PfHT via PCR [18] using Phusion Hot Start II High-Fidelity DNA Polymerase (Fisher Scientific). Single clones were selected by comparing their abilities to transport glucose as assayed via FRET and radiolabeled hexose uptake. In all cell lines, except for HEK293 cells overexpressing hGLUT1 and hGLUT5, native hGLUT1 was knocked down using shRNA as described elsewhere. Transcript levels of the individual GLUTs expressed in each cell line are as described in [13, 15] and in S1 Fig.
Glucose uptake by P. falciparum was performed essentially as described. P. falciparum strain 3D7 was cultured in 100 mm tissue culture dishes (Techno Plastic Products) in a 2% suspension of human erythrocytes and RPMI 1640 medium until reaching > 7.5% parasitemia. Cells were pelleted via centrifugation and resuspended in RPMI 1640 medium. To determine the uptake of radiolabeled glucose into the parasite, parasites were isolated from infected erythrocytes by permeablization with saponin (0.05 w/v), followed by centrifugation, aspiration of supernatant and washing of the pellet 3X with saline solution (135 mM NaCl, 2 mM KCl, 25 mM HEPES, 0.2 mM glucose and 1 mM MgCl2; pH 7.1) to remove cellular debris. WU-1 or DMSO vehicle were added to 100 μl parasites (resuspended in saline) 5 min prior to the addition of 100 μl [^14C]2-DOG (0.2- μCi/ml final concentration). 2-DG uptake was stopped after 2 min by layering the entire reaction over 300 μl of an oil mixture (5:4 mix of dibutyl phthalate / dinonyl phthalate) in Eppendorf tubes and centrifuged at 15,850 × g for 2 mins. The ratio of the estimated intracellular concentration of radiolabel relative to the extracellular concentration were calculated as described. Uptake of radiolabeled hexose into HEK293 cells was measured in glucose-free HBSS as described previously. Briefly, cells were plated at 400,000 cells/well overnight at 37°C in 24-well plates pre-treated with PEI. After 30-min incubation at 37°C in glucose-free HBSS in the presence of vehicle or increasing concentrations of compound, 2-DG uptake was measured in glucose-free HBSS for 4 min at 37°C. Cultures were washed in ice-cold 1X PBS and lysed in 0.1% Triton X-100 in 1X PBS. Radiolabeled hexose uptake was determined by liquid scintillation counting (Ultima Gold, Thermo Fisher) and normalized to total protein per well. Uptake data are plotted as percent uptake relative to vehicle-treated cells. Kinetic analyses were performed using the indicated concentrations of substrate and WU-1, with quenching of uptake after 1 min incubation. Incubation times had been previously determined as being in the linear range of time-dependent radiolabeled hexose uptake (2 min for 2-DG uptake into freed parasites; 2 and 4 min for D-Frc and 2-DG uptake HEK cell lines, respectively). Data were fit by least squares nonlinear regression analysis using GraphPad Prism 6.0 software.

The structures appear in SMILES notation.

Broadly, the inhibition is the share of the control response that was lost under treatment. The IC50 is the midpoint of a concentration-inhibition curve. For the compound `COc1cc(/C=C2\COC/C(=C\c3cc(OC)c(OC)c(OC)c3)C2=O)cc(OC)c1OC` [WU-5, (3E,5E)-3,5-bis[(3,4,5-trimethoxyphenyl)methylidene]oxan-4-one], the remaining activity at 0.001 µM (HEK293, 4 min, read-out: 2-DG uptake (percent uptake relative to vehicle), AVE, PfHT, 0.001 µM compound) is 100%. In addition, the remaining activity at 0.3125 µM (HEK293, 4 min, read-out: 2-DG uptake (percent uptake relative to vehicle), AVE, PfHT, 0.3125 µM compound (0.313 in Fig 1 sheet for WU-1)) came to 92.8%. Besides, the remaining activity at 0.625 µM (HEK293, 4 min, read-out: 2-DG uptake (percent uptake relative to vehicle), AVE, PfHT, 0.625 µM compound) came to 89.8%. Besides, the remaining activity at 1.25 µM (HEK293, 4 min, read-out: 2-DG uptake (percent uptake relative to vehicle), AVE, PfHT, 1.25 µM compound) is 72.2%. Besides, under “HEK293, 4 min, read-out: 2-DG uptake (percent uptake relative to vehicle), AVE, PfHT, 2.5 µM compound”, the remaining activity at 2.5 µM came out at 61.4%. Besides, the remaining activity at 5 µM (HEK293, 4 min, read-out: 2-DG uptake (percent uptake relative to vehicle), AVE, PfHT, 5 µM compound) came to 48.9%. The remaining activity at 10 µM (HEK293, 4 min, read-out: 2-DG uptake (percent uptake relative to vehicle), AVE, PfHT, 10 µM compound) is 32%. In addition, the remaining activity at 20 µM (HEK293, 4 min, read-out: 2-DG uptake (percent uptake relative to vehicle), AVE, PfHT, 20 µM compound) amounted to 30.9%. The remaining activity at 80 µM (HEK293, 4 min, read-out: 2-DG uptake (percent uptake relative to vehicle), AVE, PfHT, 80 µM compound) stood at 32.8%. Further, the remaining activity at 160 µM (HEK293, 4 min, read-out: 2-DG uptake (percent uptake relative to vehicle), AVE, PfHT, 160 µM compound) was found to be 34.5%. Also, under “HEK293, 4 min, read-out: 2-DG uptake (percent uptake relative to vehicle), AVE, PfHT, 225 µM compound”, the remaining activity at 225 µM amounted to 35.8%. For the same compound, the inhibition at 2.5 µM (HEK293, 4 min, read-out: % Inhibition of 2-DG uptake vs vehicle) was 47%. The same compound yielded an IC50 (IC50 for inhibition of 2-DG uptake, HEK293 cells overexpressing PfHT, mean/reported value) of 1.9 µM.

Values taken from PMC6508677, “Identification of druggable small molecule antagonists of the Plasmodium falciparum hexose transporter PfHT and assessment of ligand access to the glucose permeation pathway via FLAG-mediated protein engineering” (PLoS ONE, 2019).
